# Experimental data from ChEMBL document CHEMBL3044528, “Potential new fungicides: N-acyl-5-methyl-3(2H)-isoxazolone derivatives” (2012).
# Experiments:
# Assay type in all cases: functional
# [1] = tested on: Cercospora beticola; experiment: Fungicidal activity against Cercospora beticola Be-2-6 assessed as mycelial growth inhibition at 25 mg/L after 7 days; conditions: Be-2-6, 168 h, read-out: GI
# [2] = tested on: Microdochium nivale; experiment: Fungicidal activity against Microdochium nivale IFO-7432 assessed as mycelial growth inhibition at 25 mg/L after 3 days; conditions: IFO-7432, 72 h, read-out: GI
# [3] = tested on: Alternaria alternata; experiment: Fungicidal activity against Alternaria alternata APS-38 assessed as mycelial growth inhibition at 25 mg/L after 3 days; conditions: APS-38, 72 h, read-out: GI
# [4] = tested on: Zymoseptoria tritici; experiment: Fungicidal activity against Zymoseptoria tritici S3 assessed as mycelial growth inhibition at 25 mg/L after 14 days; conditions: S3, 336 h, read-out: GI
# [5] = tested on: Rhynchosporium secalis; experiment: Fungicidal activity against Rhynchosporium secalis IFO-5290 assessed as mycelial growth inhibition at 25 mg/L after 14 days; conditions: IFO-5290, 336 h, read-out: GI
# [6] = tested on: Fusarium graminearum; experiment: Fungicidal activity against Fusarium graminearum H3 assessed as mycelial growth inhibition at 25 mg/L after 3 days; conditions: H3, 72 h, read-out: GI
# [7] = tested on: Pyrenophora graminea; experiment: Fungicidal activity against Pyrenophora graminea IFO-7507 assessed as mycelial growth inhibition at 25 mg/L after 3 days; conditions: IFO-7507, 72 h, read-out: GI
# [8] = tested on: Gaeumannomyces graminis; experiment: Fungicidal activity against Gaeumannomyces graminis MAFF305168 assessed as mycelial growth inhibition at 25 mg/L after 1 day; conditions: MAFF305168, 24 h, read-out: GI
# [9] = tested on: Rhizoctonia solani; experiment: Fungicidal activity against Rhizoctonia solani ET0007 assessed as mycelial growth inhibition at 25 mg/L after 1 day; conditions: ET0007, 24 h, read-out: GI
SMILES,inhibition of growth at 25 µg/mL [1],inhibition of growth at 25 µg/mL [2],inhibition of growth at 25 µg/mL [3],inhibition of growth at 25 µg/mL [4],inhibition of growth at 25 µg/mL [5],inhibition of growth at 25 µg/mL [6],inhibition of growth at 25 µg/mL [7],inhibition of growth at 25 µg/mL [8],inhibition of growth at 25 µg/mL [9]
Cc1cc(=O)n(C(=O)c2ccccc2I)o1,88%,61%,33%,47%,100%,36%,92%,25%,57%
Cc1cc(C)c(C(=O)n2oc(C)cc2=O)c(C)c1,11%,4%,22%,10%,0%,10%,90%,22%,3%
Cc1cc(=O)n(C(=O)c2c(F)c(F)c(F)c(F)c2F)o1,90%,36%,60%,56%,100%,22%,87%,0%,5%
Cc1cc(=O)n(C(=O)/C=C/c2ccccc2)o1,91%,59%,67%,62%,100%,26%,90%,0%,92%
Cc1cc(=O)n(C(=O)/C=C/c2ccc(Cl)cc2)o1,77%,45%,54%,77%,100%,43%,77%,20%,66%
Cc1cc(=O)n(C(=O)C#Cc2ccccc2)o1,88%,41%,72%,83%,98%,23%,73%,3%,17%
Cc1cc(=O)n(C(=O)C2(c3ccccc3)CC2(Cl)Cl)o1 (configuration not stated),85%,58%,50%,69%,99%,32%,89%,9%,46%
Cc1cc(=O)n(C(=O)C2(C)C(C)(C)C2(Cl)Cl)o1 (configuration not stated),80%,36%,31%,50%,87%,20%,79%,0%,24%
Cc1cc(=O)n(C(=O)C2CCc3ccccc3C2)o1 (configuration not stated),80%,82%,64%,95%,100%,40%,73%,57%,50%
Cc1cc(=O)n(C(=O)/C=C/c2ccoc2)o1,91%,68%,60%,53%,100%,44%,96%,72%,90%
Cc1cc(=O)n(C(=O)/C=C/c2cccs2)o1,77%,60%,54%,78%,100%,40%,89%,16%,75%
Cc1cc(=O)n(C(=O)/C=C/c2ccsc2)o1,90%,69%,50%,61%,100%,32%,97%,45%,100%
Cc1cc(=O)n(C(=O)CCCCC(=O)n2oc(C)cc2=O)o1,93%,61%,81%,52%,100%,27%,91%,56%,18%
